In patent US12622892B2, “Methods for treating endometriosis” (THE TEXAS A&M UNIVERSITY SYSTEM, priority 2020, dated 2026):

Assays:
ESECT-7 cells [1] = assay: Annexin V staining, ESECT-7; type: cell-based, human; conditions: 10 μM DIM-C-pPhOH-3-Cl-5-OCH3, 25 μM DIM-C-pPhOH, FIG. 3A
Experimental: Annexin V staining: ESECT-7 and ESECT-40 cells were seeded in Nunc chambered cover glass followed by various drug treatments. The cells were then washed with ice-cold PBS, and 5 μL Alexa Fluor® 488 Annexin V with 100 μg/mL PI (as per the manufacturer's instructions) were added to the cells and incubated for 15 min, and the cells were observed using a Zeiss confocal fluorescence microscope.

ESECT-7 cells [2] = assay: Quantitative real-time PCR of fibrosis markers, ESECT-7; type: cell-based, human; conditions: 24 hours, 20-25 μM DIM-C-pPhOH, 5-10 μM DIM-C-pPhOH-3-Cl-5-OCH3, vs DMSO control, FIG. 5C
Experimental: Quantitative real-time PCR: Total RNA was isolated from cultured cells according to the manufacturer's instructions (Zymo Research, Irvine, CA). The concentration and purity of the RNA samples were determined using a nanodrop spectrophotometer. Total RNA was reverse transcribed using iTaq Universal SYBR Green One-Step Kit (Thermo Fisher Scientific, Grand Island, NY) using the manufacturer's protocol with the CFX384 real-time PCR System (Bio-Rad). The comparative cycle threshold method was used for relative quantitation of samples. Values for each gene were normalized to expression levels of TATA-binding protein. The sequences of the primers used for real-time PCR included the following: α-SMA, 5′-GGCCGAGATCTCACTGACTAC-3′ (sense, SEQ ID NO. 13) and 5′-TTC ATG GAT GCC AGC AGA-3′ (antisense, SEQ ID NO. 14); COL1A1, 5′-CAG CCG CTT CAC CTA CAG C-3′ (sense, SEQ ID NO. 15) and 5′-TTTTGTATTCAATCAGTGTCTTGCC-3′ (antisense, SEQ ID NO. 16); CTGF, 5′-TTGGCCCAGACCCAACTATG-3′(sense, SEQ ID NO. 17) and 5′-CAGGAGGCGTTGTCATTGGT-3′ (antisense, SEQ ID NO. 18); FN, 5′-GGG AGC CTC GAA GAG C-3′ (sense 19) and 5′-AACAAGTACAAACCAACGCA-3′ (antisense, SEQ ID NO. 20) and TATA-binding protein, 5′-GATCAGAACAACAGCCTGCC-3′ (sense, SEQ ID NO. 21) and 5′-TTCTGAATAGGCTGTGGGGT-3′ […].

NR4A1 [3] = biological target: T1, NR4A1 (Homo sapiens, UniProt P22736); assay: Luciferase assay, NR4A1/NBRE-luc in ESECT-7 cells; type: cell-based; conditions: ESECT-7 cells transfected with NR4A1/NBRE-luc; 18 hr treatment; FIG. 2A
T1 construct: expressed in transfected cells; host or cells: ESECT-7 patient-derived endometriotic cells
T1 sequence (P22736 whole entry, species assumed): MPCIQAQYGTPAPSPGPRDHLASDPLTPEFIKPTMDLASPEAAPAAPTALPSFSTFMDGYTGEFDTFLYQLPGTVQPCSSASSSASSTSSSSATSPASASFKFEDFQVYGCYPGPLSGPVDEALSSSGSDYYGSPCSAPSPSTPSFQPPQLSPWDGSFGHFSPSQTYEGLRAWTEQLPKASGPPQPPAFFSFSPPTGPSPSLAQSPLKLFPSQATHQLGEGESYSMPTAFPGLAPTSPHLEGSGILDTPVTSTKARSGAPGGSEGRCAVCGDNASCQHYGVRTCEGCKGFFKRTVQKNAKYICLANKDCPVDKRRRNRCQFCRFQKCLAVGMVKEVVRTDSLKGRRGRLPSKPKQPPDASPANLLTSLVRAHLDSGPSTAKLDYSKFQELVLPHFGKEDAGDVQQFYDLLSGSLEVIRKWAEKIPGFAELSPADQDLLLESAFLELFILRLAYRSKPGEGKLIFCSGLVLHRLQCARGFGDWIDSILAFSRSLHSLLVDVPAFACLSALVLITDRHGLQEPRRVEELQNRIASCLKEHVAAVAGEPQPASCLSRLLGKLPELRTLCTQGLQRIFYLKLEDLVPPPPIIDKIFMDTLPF
Experimental: (§1) Luciferase assay: ESECT-7 and ESECT-40 cells were plated on 12-well plates in DMEM/F12 supplemented with 2.5% charcoal-stripped FBS. After overnight attachment and growth, various amounts of DNA [i.e., UASx5-Luc (500 ng), GAL4-NR4A1 (50 ng), NBREx3-Luc (800 ng), NurREx3-Luc (800 ng) and Flag-NR4A1 (80 ng)] were co-transfected into each well using Lipofectamine 2000 reagent (Invitrogen, Carlsbad, CA) according to the manufacturer's protocol. After 6 hr of transfection, cells were treated with plating medium (as above) containing either solvent (DMSO) or indicated concentrations of the compound for 18 hr. Cells were then lysed and cell extracts were used for chemiluminescence quantification of luciferase activity. Luciferase activity values were normalized against corresponding protein concentration values determined by Bradford assay. Both GAL4- and Flag-NR4A1 constructs contain full-length NR4A1 coding sequence and all the plasmids used in this study were previously described.

IHEECs = assay: Expression of fibrosis markers in IHEECs; type: cell-based, human; conditions: 24 hours, vs control, FIG. 6B
NR4A1 [4] = biological target: T2, NR4A1 (Mus musculus, UniProt P12813); conditions: C2C12 muscle cells; cited from earlier work
T2 construct: endogenous in cells; host or cells: C2C12 muscle cells
T2 sequence (P12813 whole entry): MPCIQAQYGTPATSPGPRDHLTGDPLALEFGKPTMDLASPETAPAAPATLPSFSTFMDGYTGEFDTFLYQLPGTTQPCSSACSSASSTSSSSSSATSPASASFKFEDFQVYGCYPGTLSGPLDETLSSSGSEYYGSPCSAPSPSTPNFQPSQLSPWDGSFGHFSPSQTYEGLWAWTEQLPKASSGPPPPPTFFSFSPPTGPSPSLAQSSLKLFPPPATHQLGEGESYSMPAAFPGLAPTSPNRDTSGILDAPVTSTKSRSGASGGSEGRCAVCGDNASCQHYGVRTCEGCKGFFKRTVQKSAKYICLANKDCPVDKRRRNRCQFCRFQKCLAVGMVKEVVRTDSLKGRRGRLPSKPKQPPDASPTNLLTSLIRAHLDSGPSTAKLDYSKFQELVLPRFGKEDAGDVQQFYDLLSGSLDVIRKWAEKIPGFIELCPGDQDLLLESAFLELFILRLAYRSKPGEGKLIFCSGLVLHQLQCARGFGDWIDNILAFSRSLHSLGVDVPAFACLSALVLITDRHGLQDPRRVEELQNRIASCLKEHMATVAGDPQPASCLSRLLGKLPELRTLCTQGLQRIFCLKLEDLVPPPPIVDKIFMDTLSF

NEM cells [5] = assay: Western blotting of growth promoting and proapoptotic gene products, NEM cells; type: cell-based, human
NEM cells [6] = assay: Annexin V staining, NEM cells; type: cell-based, human; conditions: 25 μM DIM-C-pPhOH, 10 μM DIM-C-pPhOH-3-Cl-5-OCH3, vs DMSO control, FIG. 4C
Ishikawa cells = assay: Expression of fibrosis markers in Ishikawa cells; type: cell-based; conditions: 24 hours, FIG. 6D
GAL4-NR4A1 = biological target: T3, GAL4-NR4A1 (Homo sapiens, UniProt P22736); assay: Luciferase assay, GAL4-NR4A1 chimera/UAS-luc in ESECT-7 cells; type: cell-based; conditions: ESECT-7 cells transfected with GAL4-NR4A1 chimera/UAS-luc; 18 hr treatment; FIG. 2A
T3 construct: GAL4 (fusion partner); expressed in transfected cells; host or cells: ESECT-7 patient-derived endometriotic cells
T3 sequence (P22736 with tags, fused parts or gaps): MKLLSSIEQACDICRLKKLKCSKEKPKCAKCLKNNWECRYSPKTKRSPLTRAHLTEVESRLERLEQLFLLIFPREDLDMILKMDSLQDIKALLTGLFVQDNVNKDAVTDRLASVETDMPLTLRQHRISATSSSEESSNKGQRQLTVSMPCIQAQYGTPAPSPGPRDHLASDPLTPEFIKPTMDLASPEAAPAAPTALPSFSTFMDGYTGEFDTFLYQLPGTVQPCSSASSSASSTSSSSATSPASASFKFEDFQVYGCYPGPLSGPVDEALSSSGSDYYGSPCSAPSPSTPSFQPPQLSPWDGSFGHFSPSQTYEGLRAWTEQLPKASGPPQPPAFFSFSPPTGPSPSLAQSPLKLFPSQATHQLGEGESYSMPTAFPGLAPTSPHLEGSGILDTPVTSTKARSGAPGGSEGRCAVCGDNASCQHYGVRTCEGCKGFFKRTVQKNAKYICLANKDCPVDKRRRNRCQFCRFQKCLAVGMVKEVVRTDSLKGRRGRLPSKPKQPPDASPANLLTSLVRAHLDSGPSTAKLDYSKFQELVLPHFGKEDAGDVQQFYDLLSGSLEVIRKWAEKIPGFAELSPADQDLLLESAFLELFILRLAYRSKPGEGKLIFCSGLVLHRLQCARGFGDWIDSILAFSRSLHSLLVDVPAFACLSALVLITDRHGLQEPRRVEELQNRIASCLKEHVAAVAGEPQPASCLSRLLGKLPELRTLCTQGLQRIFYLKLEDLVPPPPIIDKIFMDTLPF
Experimental: as §1

## COc1cc(C(c2c[nH]c3ccccc23)c2c[nH]c3ccccc23)cc(Cl)c1O [DIM-C-pPhOH-3-Cl-5-OCH3]
ESECT-7 cells [1]
  Annexin V staining (apoptosis): significantly induced
ESECT-7 cells [2]
  mRNA levels of fibrosis markers (FN, Col1A1, CTGF): decreased mRNA levels
NR4A1 [3]
  intrinsic transcriptional activity of NR4A1: inhibited the intrinsic transcriptional activity
IHEECs
  expression of fibrosis markers (α-SMA, COL1A1, FN, CTGF): decreased expression of fibrosis markers
Mouse ectopic lesions; 25 mg/kg every day, intraperitoneal, three weeks, p=0.015, FIG. 8D
  reduction of the volume of ectopic lesions compared to the vehicle: 2.4 fold
Mouse ectopic lesions; mouse, in vivo
  bodyweight of mice as compared to the vehicle: did not change
NR4A1 [4]
  NR4A1 agonist activity, induction of genes involved in glucose uptake: worked as NR4A1 agonists
NEM cells [5]; 25 μM DIM-C-pPhOH, 10 μM DIM-C-pPhOH-3-Cl-5-OCH3, vs DMSO control, FIG. 4D
  levels of the cleaved form of PARP and Bax: did not enhance
NEM cells [5]; 15-25 μM DIM-C-pPhOH, 5-10 μM DIM-C-pPhOH-3-Cl-5-OCH3, vs DMSO control, FIG. 4B
  cMyc and EGFR expression: did not decrease
NEM cells [6]
  Annexin V staining: did not enhance
Ishikawa cells
  expression of fibrosis markers (α-SMA, COL1A1, FN, CTGF): decreased expression of fibrosis markers
GAL4-NR4A1
  intrinsic transcriptional activity of GAL4-NR4A1: inhibited the intrinsic transcriptional activity
